Tests used:
Assay type in all cases: biochemical
Src enzyme = molecular target: T1, Src enzyme (Homo sapiens, UniProt P12931); experiment: Src enzyme activity, IMAP fluorescence polarization assay; conditions: 60 min pre-incubation, 4 μM ATP (Km)
T1 construct: purchased Millipore 14-326
Procedure: Src enzyme activity is measured using the IMAP (immobilized metal ion affinity-based fluorescence polarization) assay as outlined below.
Src enzyme (Millipore catalog#14-326), is diluted to 0.8 U/mL in KR buffer (10 mM Tris-HCl, 10 mM MgCl2, 0.01% Tween-20, 0.05% NaN3, 1 mM DTT, 2 mM MnCl2, pH 7.2).
Serial dilution log 10 from 2 mM to 63.2 nM of test compounds are made in 100% DMSO. The dilutions in DMSO are then diluted 50-fold in KR-buffer of which 5 μl is used in the assay, leading to a final compound concentration range in the assay from 10 μM to 0.316 nM. 5 μL/well of test compound in KR buffer (final DMSO concentration in the assay is 1%) is mixed with 5 μl/well of 0.8 U/mL Src enzyme (final concentration in the assay is 0.2 U/mL). Test compounds and Src enzyme are pre-incubated 60 minutes at room temperature, before adding 5 μL/well of 400 nM Fluorescin labeled substrate peptide (p34cdc2 substrate peptide, e.g. #R7157/#R7172, Molecular Devices) in KR-buffer. Final peptide substrate concentration in assay is 100 nM. The kinase assay is started by adding 5 μL/well of 16 μM ATP in KR-buffer (final ATP concentration is 4 μM ATP, Km ATP in Src IMAP assay). Following incubation for 2 h at room temperature the enzyme reaction is stopped by adding 40 μL/well IMAP Progressive Binding Solution (according to suppliers (Molecular Devices) protocol using 75% 1× buffer A and 25% 1× buffer B with 1:600 Progressive Binding Solution). After 60 min incubation at room temperature in the dark the FP signal is read. Fluorescence at 535 nm is measured using parallel and perpendicular filters to determine differences in rotation due to binding of the phosphorylated substrate peptide to the beads. Values are calculated as percentage of the difference in readout (ΔmPi) of the controls with and without ATP. EC50 values are determined by curve fitting of the experimental results using Activity Base.

Lyn enzyme = molecular target: T2, Lyn enzyme (Homo sapiens, UniProt P07948); experiment: Lyn enzyme activity, IMAP fluorescence polarization assay; conditions: 60 min pre-incubation, 2 μM ATP (Km)
T2 construct: purchased Millipore 14-510
T2 sequence (P07948 whole entry): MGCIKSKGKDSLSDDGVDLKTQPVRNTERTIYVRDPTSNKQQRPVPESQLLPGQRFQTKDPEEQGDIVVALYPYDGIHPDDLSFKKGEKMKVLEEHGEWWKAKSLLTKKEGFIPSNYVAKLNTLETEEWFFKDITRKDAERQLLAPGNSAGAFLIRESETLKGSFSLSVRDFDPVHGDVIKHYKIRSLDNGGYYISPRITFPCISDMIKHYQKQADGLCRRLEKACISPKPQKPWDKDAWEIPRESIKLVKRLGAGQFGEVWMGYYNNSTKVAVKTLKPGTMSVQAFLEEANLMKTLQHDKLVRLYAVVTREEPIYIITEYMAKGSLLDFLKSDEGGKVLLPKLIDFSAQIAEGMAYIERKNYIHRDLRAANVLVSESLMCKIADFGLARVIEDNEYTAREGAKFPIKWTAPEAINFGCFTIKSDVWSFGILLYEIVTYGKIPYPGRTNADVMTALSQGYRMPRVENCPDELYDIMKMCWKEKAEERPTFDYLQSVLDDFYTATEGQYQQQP
Procedure: Lyn enzyme activity is measured using the IMAP (immobilized metal ion affinity-based fluorescence polarization) assay as outlined below.
Lyn enzyme (Millipore catalog#14-510), is diluted to 250 mU/mL in KR buffer (10 mM Tris-HCl, 10 mM MgCl2, 0.01% Tween-20, 0.05% NaN3, 1 mM DTT, 2 mM MnCl2, pH 7.2). Serial dilution log 10 from 2 mM to 63.2 nM of test compounds are made in 100% DMSO. The dilutions in DMSO are then diluted 50-fold in KR-buffer of which 5 μl is used in the assay, leading to a final compound concentration range in the assay from 10 μM to 0.316 nM. 5 μL/well of test compound in KR buffer (final DMSO concentration in the assay is 1%) is mixed with 5 μl/well of 250 mU/mL Lyn enzyme (final concentration in the assay is 62.5 mU/mL). Test compounds and Lyn enzyme are pre-incubated 60 minutes at room temperature, before adding 5 μL/well of 400 nM Fluorescin labeled substrate peptide (Blk/Lyntide substrate, e.g. #R7188/#R7233, Molecular Devices) in KR-buffer. Final peptide substrate concentration in assay is 100 nM. The kinase assay is started by adding 5 μL/well of 8 μM ATP in KR-buffer (final ATP concentration is 2 μM ATP, Km ATP in Lyn IMAP assay). Following incubation for 2 h at room temperature the enzyme reaction is stopped by adding 40 μL/well IMAP Progressive Binding Solution (according to suppliers (Molecular Devices) protocol using 75% 1× buffer A and 25% 1× buffer B with 1:600 Progressive Binding Solution). After 60 min incubation at room temperature in the dark the FP signal is read. Fluorescence at 535 nm is measured using parallel and perpendicular filters to determine differences in rotation due to binding of the phosphorylated substrate peptide to the beads. Values are calculated as percentage of the difference in readout (ΔmPi) of the controls with and without ATP. EC50 values are determined by curve fitting of the experimental results using Activity Base.

Lck enzyme = molecular target: T3, Lck enzyme (Homo sapiens, UniProt P06239); experiment: Lck enzyme activity, IMAP fluorescence polarization assay; conditions: 60 min pre-incubation, 6 μM ATP (Km)
T3 construct: purchased Millipore 14-442
T3 sequence (P06239 whole entry): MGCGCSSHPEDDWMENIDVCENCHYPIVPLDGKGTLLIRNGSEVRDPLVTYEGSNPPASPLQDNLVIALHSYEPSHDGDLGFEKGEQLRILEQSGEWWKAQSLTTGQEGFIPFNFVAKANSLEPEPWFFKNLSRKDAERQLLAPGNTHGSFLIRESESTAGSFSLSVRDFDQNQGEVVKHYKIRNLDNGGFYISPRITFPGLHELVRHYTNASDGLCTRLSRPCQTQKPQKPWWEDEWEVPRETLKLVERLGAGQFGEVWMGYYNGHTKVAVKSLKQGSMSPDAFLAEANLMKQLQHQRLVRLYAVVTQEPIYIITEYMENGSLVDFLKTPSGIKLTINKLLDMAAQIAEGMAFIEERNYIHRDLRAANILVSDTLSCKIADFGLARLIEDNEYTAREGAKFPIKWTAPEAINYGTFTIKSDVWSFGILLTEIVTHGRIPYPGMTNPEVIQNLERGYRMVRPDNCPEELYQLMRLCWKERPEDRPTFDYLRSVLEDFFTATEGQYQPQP
Procedure: Lck enzyme activity is measured using the IMAP (immobilized metal ion affinity-based fluorescence polarization) assay as outlined below.
Lck enzyme (Millipore catalog#14-442), is diluted to 0.4 U/mL in KR buffer (10 mM Tris-HCl, 10 mM MgCl2, 0.01% Tween-20, 0.05% NaN3, 1 mM DTT, 2 mM MnCl2, pH 7.2). Serial dilution log 10 from 2 mM to 63.2 nM of test compounds are made in 100% DMSO. The dilutions in DMSO are then diluted 50-fold in KR-buffer of which 5 μl is used in the assay, leading to a final compound concentration range in the assay from 10 μM to 0.316 nM. 5 μL/well of test compound in KR buffer (final DMSO concentration in the assay is 1%) is mixed with 5 μl/well of 0.4 U/mL Lck enzyme (final concentration in the assay is 0.1 U/mL). Test compounds and Lck enzyme are pre-incubated 60 minutes at room temperature, before adding 5 μL/well of 400 nM Fluorescin labeled substrate peptide (p34cdc2 substrate peptide, e.g. #R7157/#R7172, Molecular Devices) in KR-buffer. Final peptide substrate concentration in assay is 100 nM. The kinase assay is started by adding 5 μL/well of 24 μM ATP in KR-buffer (final ATP concentration is 6 μM ATP, Km ATP in Lck IMAP assay). Following incubation for 2 h at room temperature the enzyme reaction is stopped by adding 40 μL/well IMAP Progressive Binding Solution (according to suppliers (Molecular Devices) protocol using 75% 1× buffer A and 25% 1× buffer B with 1:600 Progressive Binding Solution). After 60 min incubation at room temperature in the dark the FP signal is read. Fluorescence at 535 nm is measured using parallel and perpendicular filters to determine differences in rotation due to binding of the phosphorylated substrate peptide to the beads. Values are calculated as percentage of the difference in readout (ΔmPi) of the controls with and without ATP. EC50 values are determined by curve fitting of the experimental results using Activity Base.

Measured: EC50

T1 sequence (P12931 whole entry): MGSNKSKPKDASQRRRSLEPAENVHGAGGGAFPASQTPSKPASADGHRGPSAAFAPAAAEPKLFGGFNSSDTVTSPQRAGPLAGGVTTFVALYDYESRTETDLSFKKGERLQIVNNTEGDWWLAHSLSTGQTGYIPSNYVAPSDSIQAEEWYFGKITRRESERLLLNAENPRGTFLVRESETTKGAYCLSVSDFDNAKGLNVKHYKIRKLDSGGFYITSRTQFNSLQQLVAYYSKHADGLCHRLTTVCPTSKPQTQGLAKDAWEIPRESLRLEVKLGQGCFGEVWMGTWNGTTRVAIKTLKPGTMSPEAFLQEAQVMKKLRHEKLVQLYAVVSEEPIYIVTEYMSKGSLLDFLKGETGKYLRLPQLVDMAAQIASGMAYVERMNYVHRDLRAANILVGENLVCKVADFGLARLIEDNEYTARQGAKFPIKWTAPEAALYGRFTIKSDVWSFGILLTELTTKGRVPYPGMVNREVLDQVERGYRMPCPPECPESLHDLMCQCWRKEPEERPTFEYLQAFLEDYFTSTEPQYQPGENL

C=CC(=O)N1CCCC[C@H]1c1nc(-c2ccc(C(=O)Nc3cc(CCC)ccn3)cc2)c2c(C)nccn12 [Example 2, (S)-4-(3-(1-Acryloylpiperidin-2-yl)-8-methylimidazo[1,5-a]pyrazin-1-yl)-N-(4-propylpyridin-2-yl)benzamide]
≥ 1000 nM: all assays above

CCCc1ccnc(NC(=O)c2ccc(-c3nc([C@@H]4CCCCN4C(=O)/C=C/CN(C)C)n4ccnc(C)c34)cc2)c1 [Example 3, (S,E)-4-(3-(1-(4-(Dimethylamino)but-2-enoyl)piperidin-2-yl)-8-methylimidazo[1,5-a]pyrazin-1-yl)-N-(4-propylpyridin-2-yl)benzamide]
≥ 1000 nM: all assays above

C=CS(=O)(=O)N1CCCC[C@H]1c1nc(-c2ccc(C(=O)Nc3cc(CCC)ccn3)cc2)c2c(C)nccn12 [Example 4, (S)-4-(8-Methyl-3-(1-(vinylsulfonyl)piperidin-2-yl)imidazo[1,5-a]pyrazin-1-yl)-N-(4-propylpyridin-2-yl)benzamide]
≥ 1000 nM: all assays above

COC/C=C/C(=O)N[C@@H](C)c1nc(-c2ccc(C(=O)Nc3cc(C(F)(F)F)ccn3)cc2)c2c(C)nccn12 [Example 6, (S,E)-4-(3-(1-(4-Methoxybut-2-enamido)ethyl)-8-methylimidazo[1,5-a]pyrazin-1-yl)-N-(4-(trifluoromethyl)pyridin-2-yl)benzamide]
≥ 1000 nM: all assays above

CC#CC(=O)N[C@@H](C)c1nc(-c2ccc(C(=O)Nc3cc(C(F)(F)F)ccn3)cc2)c2c(C)nccn12 [Example 7, (S)-4-(3-(1-But-2-ynamidoethyl)-8-methylimidazo[1,5-a]pyrazin-1-yl)-N-(4-(trifluoromethyl)pyridin-2-yl)benzamide]
≥ 1000 nM: all assays above

C=CC(=O)N[C@@H](C)c1nc(-c2ccc(C(=O)Nc3cc(C(F)(F)F)ccn3)cc2)c2c(C)nccn12 [Example 8, (S)-4-(3-(1-Acrylamidoethyl)-8-methylimidazo[1,5-a]pyrazin-1-yl)-N-(4-(trifluoromethyl)pyridin-2-yl)benzamide]
≥ 1000 nM: all assays above

C=CC(=O)N1CCC[C@H]1c1nc(-c2ccc(C(=O)Nc3cc(CCC)ccn3)cc2)c2c(C)nccn12 [Example 9, (S)-4-(3-(1-Acryloylpyrrolidin-2-yl)-8-methylimidazo[1,5-a]pyrazin-1-yl)-N-(4-propylpyridin-2-yl)benzamide]
≥ 1000 nM: all assays above

C=CC(=O)N1CCC[C@H]1c1nc(-c2ccc(C(=O)Nc3cc(C(F)(F)F)ccn3)cc2)c2c(C)nccn12 [Example 10, (S)-4-(3-(1-Acryloylpyrrolidin-2-yl)-8-methylimidazo[1,5-a]pyrazin-1-yl)-N-(4-(trifluoromethyl)pyridin-2-yl)benzamide]
≥ 1000 nM: all assays above

C=CC(=O)N1CCC[C@H]1c1nc(-c2ccc(C(=O)Nc3cc(C#N)ccn3)cc2)c2c(C)nccn12 [Example 13, (S)-4-(3-(1-Acryloylpyrrolidin-2-yl)-8-methylimidazo[1,5-a]pyrazin-1-yl)-N-(4-cyanopyridin-2-yl)benzamide]
≥ 1000 nM: all assays above

CC#CC(=O)N1CCC[C@H]1c1nc(-c2ccc(C(=O)Nc3cc(C)ccn3)cc2)c2c(C)nccn12 [Example 15, (S)-4-(3-(1-but-2-ynoylpyrrolidin-2-yl)-8-methylimidazo[1,5-a]pyrazin-1-yl)-N-(4-methylpyridin-2-yl)benzamide]
≥ 1000 nM: all assays above

CCCc1ccnc(NC(=O)c2ccc(-c3nc([C@H](C)N(C)C(=O)/C=C/CN(C)C)n4ccnc(C)c34)cc2)c1 [Example 18, (S,E)-4-(3-(1-(4-(dimethylamino)-N-methylbut-2-enamido)ethyl)-8-methylimidazo[1,5-a]pyrazin-1-yl)-N-(4-propylpyridin-2-yl)benzamide]
≥ 1000 nM: all assays above

C=CC(=O)N1CCC[C@H]1c1nc(-c2ccc(C(=O)Nc3ccccn3)cc2)c2c(C)nccn12 [Example 19, (S)-4-(3-(1-acryloylpyrrolidin-2-yl)-8-methylimidazo[1,5-a]pyrazin-1-yl)-N-(pyridin-2-yl)benzamide]
≥ 1000 nM: all assays above

Cc1nccn2c([C@@H]3CCCCN3C(=O)/C=C/CN3CCCC3)nc(-c3ccc(C(=O)Nc4cc(C(F)(F)F)ccn4)cc3)c12 [Example 21, (S,E)-4-(8-methyl-3-(1-(4-(pyrrolidin-1-yl)but-2-enoyl)piperidin-2-yl)imidazo[1,5-a]pyrazin-1-yl)-N-(4-(trifluoromethyl)pyridin-2-yl)benzamide]
≥ 1000 nM: all assays above

— patent publication US20140155406A1, “4-IMIDAZOPYRIDAZIN-1-YL-BENZAMIDES AND 4-IMIDAZOTRIAZIN-1-YL-BENZAMIDES BTK INHIBITORS” (priority 2011, published 2014)
